Legend:
[1] = biological target: T1, PI3Kγ (Homo sapiens, UniProt P48736); test: In vitro PI3K inhibition assay (ADP-Glo kinase assay), PI3Kγ; assay type: biochemical; settings: for IC50: mean of two independent experiments; for Fold Selectivity γ/δ: ratio IC50 PI3Kγ / IC50 PI3Kδ
T1 construct: purchased Merck Millipore
Method: (§1) All compounds were tested in a biochemical assay that measured the inhibition of phosphatidylinositol […] production by PI3K isoforms using the ADP-Glo kinase assay (Promega). In addition, the effects of synthesized compounds on B cell proliferation were measured.
(§2) The potency and selectivity of compounds were assessed by measuring the ability of PI3K kinases to convert ATP to ADP during an enzymatic reaction in the presence of decreasing doses of tested compounds. The experiments were carried out using the ADP-Glo kinase assay kit (Promega), according to the manufacturer’s protocol. PI3Kα, PI3Kβ, PI3Kδ, and PI3Kγ have been purchased from Merck Millipore and phosphoinositol-4,5-bisphosphate (PIP2) lipid vesicles with phosphoserine from ThermoFisher Scientific were used as a substrate in the enzymatic reaction.
(§3) After the reaction, the ADP-Glo reagent and the kinase detection reagent were added sequentially with 40 min of incubation (25 °C, 600 rpm) after adding each reagent. Finally, the luminescence intensity was measured and the IC50 was calculated using GraphPad Prism 7 software. The presented results are the mean value of IC50 from at least two independent experiments.

[2] = biological target: T2, PI3Kδ (Homo sapiens, UniProt O00329); test: In vitro PI3K inhibition assay (ADP-Glo kinase assay), PI3Kδ; assay type: biochemical; settings: mean of two independent experiments
T2 construct: purchased Merck Millipore
Method: as §1, §2, §3

T2 sequence (O00329 whole entry, looked up): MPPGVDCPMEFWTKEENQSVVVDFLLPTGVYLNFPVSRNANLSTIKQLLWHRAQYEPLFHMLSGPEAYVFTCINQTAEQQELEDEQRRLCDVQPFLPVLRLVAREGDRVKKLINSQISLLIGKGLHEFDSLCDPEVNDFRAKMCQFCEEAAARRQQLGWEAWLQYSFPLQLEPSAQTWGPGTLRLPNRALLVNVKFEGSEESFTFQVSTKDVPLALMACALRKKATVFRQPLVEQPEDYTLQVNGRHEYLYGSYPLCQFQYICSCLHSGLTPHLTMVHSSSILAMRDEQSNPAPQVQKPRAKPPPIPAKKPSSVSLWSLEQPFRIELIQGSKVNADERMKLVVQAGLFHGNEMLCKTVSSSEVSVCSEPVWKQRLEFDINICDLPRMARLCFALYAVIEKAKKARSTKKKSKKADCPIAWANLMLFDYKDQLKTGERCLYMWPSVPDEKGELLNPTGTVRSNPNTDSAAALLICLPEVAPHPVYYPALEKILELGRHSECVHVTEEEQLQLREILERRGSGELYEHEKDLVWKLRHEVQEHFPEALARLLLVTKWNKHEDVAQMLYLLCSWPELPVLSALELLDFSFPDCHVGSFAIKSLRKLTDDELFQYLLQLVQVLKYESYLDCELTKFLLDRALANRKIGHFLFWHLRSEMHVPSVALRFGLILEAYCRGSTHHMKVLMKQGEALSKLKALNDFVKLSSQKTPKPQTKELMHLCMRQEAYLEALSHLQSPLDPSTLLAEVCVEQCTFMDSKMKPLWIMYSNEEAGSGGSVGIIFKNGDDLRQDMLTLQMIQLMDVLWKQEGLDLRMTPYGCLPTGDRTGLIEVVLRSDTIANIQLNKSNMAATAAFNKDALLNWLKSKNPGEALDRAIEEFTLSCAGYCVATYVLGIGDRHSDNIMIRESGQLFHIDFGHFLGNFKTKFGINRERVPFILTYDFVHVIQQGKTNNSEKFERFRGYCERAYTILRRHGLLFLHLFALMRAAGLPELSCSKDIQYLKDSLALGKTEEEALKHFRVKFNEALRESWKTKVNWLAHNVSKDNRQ
T1 sequence (P48736 whole entry): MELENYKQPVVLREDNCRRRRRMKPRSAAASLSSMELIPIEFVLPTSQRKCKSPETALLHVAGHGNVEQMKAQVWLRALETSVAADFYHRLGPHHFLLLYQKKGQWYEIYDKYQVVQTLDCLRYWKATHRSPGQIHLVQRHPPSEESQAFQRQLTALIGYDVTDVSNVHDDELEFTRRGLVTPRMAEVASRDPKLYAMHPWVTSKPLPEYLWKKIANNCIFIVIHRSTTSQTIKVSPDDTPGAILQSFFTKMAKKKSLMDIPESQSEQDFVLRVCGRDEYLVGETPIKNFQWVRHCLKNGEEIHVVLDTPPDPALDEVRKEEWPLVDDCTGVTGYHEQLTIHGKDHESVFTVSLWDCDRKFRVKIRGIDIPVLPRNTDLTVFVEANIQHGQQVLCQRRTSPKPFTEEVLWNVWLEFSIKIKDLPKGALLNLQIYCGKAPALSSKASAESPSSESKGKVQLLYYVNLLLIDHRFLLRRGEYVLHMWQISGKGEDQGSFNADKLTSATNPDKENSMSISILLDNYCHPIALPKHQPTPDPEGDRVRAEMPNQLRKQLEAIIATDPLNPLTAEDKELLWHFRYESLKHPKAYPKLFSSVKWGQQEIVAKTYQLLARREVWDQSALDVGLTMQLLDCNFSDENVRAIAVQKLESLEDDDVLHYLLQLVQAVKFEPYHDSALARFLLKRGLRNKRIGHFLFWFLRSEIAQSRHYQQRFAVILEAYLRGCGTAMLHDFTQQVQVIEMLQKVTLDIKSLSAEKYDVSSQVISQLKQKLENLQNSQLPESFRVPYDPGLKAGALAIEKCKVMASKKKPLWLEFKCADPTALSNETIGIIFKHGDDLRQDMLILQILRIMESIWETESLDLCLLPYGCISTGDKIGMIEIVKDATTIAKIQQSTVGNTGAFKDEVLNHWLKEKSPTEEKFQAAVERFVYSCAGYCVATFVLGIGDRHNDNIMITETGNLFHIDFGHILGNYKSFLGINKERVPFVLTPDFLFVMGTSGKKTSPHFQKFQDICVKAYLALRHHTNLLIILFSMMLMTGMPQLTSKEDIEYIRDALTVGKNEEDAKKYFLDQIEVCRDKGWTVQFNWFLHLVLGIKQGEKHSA

SMILES | IC50 [1] | Fold Selectivity γ/δ [1] | IC50 [2]
CC(C)(C)N1CCN(Cc2cc3nc(-n4c(C(F)(F)F)nc5ccccc54)cc(N4CCOCC4)n3n2)CC1 [Compound 9, 1-{2-[(4-tert-butylpiperazin-1-yl)methyl]-7-(morpholin-4-yl)pyrazolo[1,5-a]pyrimidin-5-yl}-2-(trifluoromethyl)-1H-benzimidazole] | 135 µM | 149 | 0.907 µM
OCC1CCCN1Cc1cc2nc(-n3c(C(F)F)nc4ccccc43)cc(N3CCOCC3)n2n1 (stereo not drawn) [Compound 19, [1-({5-[2-(difluoromethyl)-1H-1,3-benzimidazol-1-yl]-7-(morpholin-4-yl)pyrazolo[1,5-a]pyrimidin-2-yl}methyl)pyrrolidin-2-yl]methanol] | 4.47 µM | 4.2 | 1.07 µM
NC1CCN(Cc2cc3nc(-n4c(C(F)F)nc5ccccc54)cc(N4CCOCC4)n3n2)C1 (stereo not drawn) [Compound 20, 1-({5-[2-(difluoromethyl)-1H-1,3-benzimidazol-1-yl]-7-(morpholin-4-yl)pyrazolo[1,5-a]pyrimidin-2-yl}methyl)pyrrolidin-3-amine] | 22.1 µM | 12 | 1.89 µM
O[C@H]1CCN(Cc2cc3nc(-n4c(C(F)F)nc5ccccc54)cc(N4CCOCC4)n3n2)C1 [Compound 21, (3S)-1-({5-[2-(difluoromethyl)-1H-1,3-benzimidazol-1-yl]-7-(morpholin-4-yl)pyrazolo[1,5-a]pyrimidin-2-yl}methyl)pyrrolidin-3-ol] | 10.9 µM | 11 | 0.956 µM
O[C@@H]1CCN(Cc2cc3nc(-n4c(C(F)F)nc5ccccc54)cc(N4CCOCC4)n3n2)C1 [Compound 22, (3R)-1-({5-[2-(difluoromethyl)-1H-1,3-benzimidazol-1-yl]-7-(morpholin-4-yl)pyrazolo[1,5-a]pyrimidin-2-yl}methyl)pyrrolidin-3-ol] | 8.42 µM | 8.6 | 0.979 µM
FC(F)c1nc2ccccc2n1-c1cc(N2CCOCC2)n2nc(CN3CCOCC3)cc2n1 [Compound 23, 2-(difluoromethyl)-1-[7-(morpholin-4-yl)-2-(morpholin-4-ylmethyl)pyrazolo[1,5-a]pyrimidin-5-yl]-1H-1,3-benzimidazole] | 1.38 µM | 10 | 0.135 µM
C[C@H]1COCCN1Cc1cc2nc(-n3c(C(F)F)nc4ccccc43)cc(N3CCOCC3)n2n1 [Compound 24, 2-(difluoromethyl)-1-(2-{[(3S)-3-methylmorpholin-4-yl]methyl}-7-(morpholin-4-yl)pyrazolo[1,5-a]pyrimidin-5-yl)-1H-1,3-benzimidazole] | 0.588 µM | 2.3 | 0.254 µM
C[C@@H]1COCCN1Cc1cc2nc(-n3c(C(F)F)nc4ccccc43)cc(N3CCOCC3)n2n1 [Compound 25, 2-(difluoromethyl)-1-(2-{[(3R)-3-methylmorpholin-4-yl]methyl}-7-(morpholin-4-yl)pyrazolo[1,5-a]pyrimidin-5-yl)-1H-1,3-benzimidazole] | 1.97 µM | 3.0 | 0.647 µM
CCOC(=O)C1CCCN(Cc2cc3nc(-n4c(C(F)F)nc5ccccc54)cc(N4CCOCC4)n3n2)C1 (stereo not drawn) [Compound 26, 1-({5-[2-(difluoromethyl)-1H-1,3-benzodiazol-1-yl]-7-(morpholin-4-yl)pyrazolo[1,5-a]pyrimidin-2-yl}methyl)piperidine-3-carboxylate] | 4.28 µM | 21 | 0.203 µM
FC(F)c1nc2ccccc2n1-c1cc(N2CCOCC2)n2nc(CNC3CCOCC3)cc2n1 [Compound 27, N-({5-[2-(difluoromethyl)-1H-1,3-benzimidazol-1-yl]-7-(morpholin-4-yl)pyrazolo[1,5-a]pyrimidin-2-yl}methyl)oxan-4-amine] | 20.5 µM | 11 | 1.81 µM

Reference: publication PMC9415947 (Pharmaceuticals, 2022)
